Laboratory results taken from patent publication US11779597B2, “Method of treating Parkinson's and other neurodegenerative diseases” (Vector Vitale IP LLC, priority 2019, dated 2023).

How the values were obtained:
Format in all cases: in vivo
[1] = test system: neuronal nitric oxide synthase; test: Neuronal nitric oxide synthase expression in astrocytes in LPS rat models; details: sham operation and LPS-induced PD; 1.5 mg/kg
Description: (§1) On the 1st day of the experiment, rats were either operated to model hemi-parkinsonism or sham operated. From the 9th to the 18th day of the experiment, the animals were injected either deuterium-depleted water or the test substance, according to their allocation into groups, for 10 days. On the 8th day of the experiment (before initiation of treatment—apomorphine test I) and on the 21st day of the experiment (after the end of administering the test substance —apomorphine test II) the animals underwent an apomorphine test to analyze the development of hemi-parkinsonism which correlates with the number of destroyed dopaminergic neurons. In addition, a follow-up analysis of fecal water content was carried out, i.e., before the start of treatment on the 8th day after the operation, as well as on the 21st (after the end of treatment) and the 28th day (before autopsy). On the 24th day of the experiment, behavioral tests were carried out in all groups. All animals were weighed before autopsy. […]

[2] = test system: LPS rat models of Parkinson's disease; test: Elevated plus maze
Description: Method. The elevated plus maze is a widely used behavioral assay for rodents that makes it possible to assess sedative or anxiogenic effects of agents and to define mechanisms underlying anxiety-related behavior, as well as to evaluate the motor activity of rats and levels of their exploratory activity that may correlate with the data collected in the open field test. Campos A C, et al., Braz J Psychiatry. 2013; 35 Suppl 2:S101-11. doi: 10.1590/1516-4446-2013-1139; Braun A A, et al., Neurobiol Learn Mem. 2012; 97(4):402-8. doi: 10.1016/j.nlm.2012.03.004). Behavior was assessed according to the following main parameters: the total distance travelled, the number of entries into each arm, the time spent in each arm, the total number of entries and percent of entries. […] Throughout the experiment, animals had free access to food and water. Before starting measurements, animals were given time to adapt to new an environment to reduce stress.
The entire apparatus was elevated 50 cm above the floor. The central part of the junction was a 10 cm square center region where an animal was started facing an open arm. The apparatus was illuminated by two LED bulbs, 60 watts each, hanging at a height of 2 m. An IP camera was used to record the location of rats and scoring was completed later using the MATLAB-based software. The statistical analysis was performed using GraphPad Prism. Significance was set at <0.005. The data collected from the open field were analyzed using One-way ANOVA (Tukey test or Dunnett test) and Unpaired t-test or Mann-Whitney.
Data analysis and interpretation. The test is based on the natural aversion of rats for open areas and their preference for closed areas of the apparatus. The levels of anxiety in animals are assessed as the total time spent in the open and closed arms. Animals that spend more time in the open arms have lower levels of anxiety compared to animals that prefer closed arms. In addition, like in an open field test, a novel environment in which an animal finds itself evokes conflict between fear and a desire to explore this environment. Therefore, the data collected from these two tests may correlate in the distance travelled and the time spent in the outer and inner perimeter. It is considered normal if during a 5-minute test, animals spend most of their time in the closed arms but also make a few entries to the open arms to explore. Accordingly, an increase in open arm entries is interpreted as a decreased anxiety in the animal. FIG. 51A and FIG. 51B show an example of analysis of a rat trajectory in the experimental arena.
(§2) On the 1st day of the experiment, rats were either operated to model hemi-parkinsonism or sham operated. From the 9th to the 18th day of the experiment, the animals were injected either deuterium-depleted water or the test substance, according to their allocation into groups, for 10 days. On the 8th day of the experiment (before initiation of treatment—apomorphine test I) and on the 21st day of the experiment (after the end of administering the test substance —apomorphine test II) the animals underwent an apomorphine test to analyze the development of hemi-parkinsonism which correlates with the number of destroyed dopaminergic neurons. In addition, a follow-up analysis of fecal water content was carried out, i.e., before the start of treatment on the 8th day after the operation, as well as on the 21st (after the end of treatment) and the 28th day (before autopsy). On the 24th day of the experiment, behavioral tests were carried out in all groups. All animals were weighed before autopsy.

[3] = test system: circulating leukocytes; test: Blood count values in LPS rat models; details: day 28
Description: as §1
The blood count values were analyzed at the completion of the experiment (day 28). The absolute number of leukocytes, as well as the absolute and relative numbers of lymphocytes, monocytes and neutrophilic granulocytes were calculated.

[4] = test system: microglia; test: Functional and phenotypic properties of microglia in LPS rat models; details: LPS animal models of PD
Description: as §2, with “autopsy. During autopsy, ⅔ of animals from each group were sacrificed by cervical dislocation and brain and blood samples were collected for further biochemical and immunological tests. ⅓ of the animals were used for further immunohistochemical studies of the brain; for this purpose, under anesthesia, a procedure of fast, controlled and uniform fixation of the whole body of the animal was performed using 4% paraformaldehyde perfused through the heart of the rat to obtain the best preservation of the brain architecture for immunohistochemistry. Gage G J, et al., J Vis Exp. 2012 Jul. 30; (65).” for “autopsy.”
To assess the anti-inflammatory and immunomodulating effects of the test substance, microglia and peritoneal macrophages were isolated. Phenotypic and functional features of peripheral blood phagocytes were evaluated without their fractioning (using whole blood). […]
Phagocytic activity of microglia, peritoneal macrophages and peripheral blood phagocytes was analyzed on a flow cytometer using FITC-labeled S. aureus Wood 46 cells as an object of phagocytosis. […]
Oxidative metabolism of phagocytes of various localization was analyzed by flow cytometry using the cell-permeant 2′7′-dichlorodihydrofluorescein-diacetate (DHP) (carboxy-H2DCFDA, Invitrogen, USA) which is converted by intracellular esterases to the nonfluorescent membrane-impermeable carboxy-H2DCF form.
The phenotypic profile of phagocytes of various localization was characterized by the expression of markers of functional maturity and metabolic polarization (CD206, CD80 and CD86), which was determined by flow cytometry and the use of monoclonal antibodies of appropriate specificity marked with fluorescent dyes (Abcam, Becton Dickinson).

Substance: ^64Zn-enriched zinc aspartate [^64Zne-asp]
- expression of nitric oxide synthase enzyme in astrocytes [1]: increase
- Number of entries into closed arms ([2]; LPS + ^64Zn-asp, Gr. V): 6.1 ± 8.279
- Number of entries into open arms ([2]; LPS + ^64Zn-asp, Gr. V): 6.1 ± 8.279
- Time spent in closed arms ([2]; LPS + ^64Zn-asp, Gr. V): 243.3 ± 54.2 s
- Time spent in open arms ([2]; LPS + ^64Zn-asp, Gr. V): 17.55 ± 24.48 s
- Total distance travelled, cm ([2]; LPS + ^64Zn-asp, Gr. V): 396.8 ± 107.7 cm
- Total number of entries ([2]; LPS + ^64Zn-asp, Gr. V): 13 ± 16.66
- behavioral parameters in the elevated plus maze (in words) ([2]; group V (LPS+^64Zn-asp) versus group IV (LPS)): had not produced any effects
- increase of number of entries ([2]; group V versus group IV (LPS)): 1.3 times
- increase of total distance travelled ([2]; group V versus group IV (LPS)): 1.2 times
- absolute number of circulating leukocytes [3]: did not influence
- expression of CD86 by microglia [4]: significant increase
- expression of CD206 by microglia [4]: increased expression
- oxidative metabolism of microglia [4]: slightly but statistically significantly increased
- phagocytic activity of microglia [4]: sharp increase
